In US20260098017A1, “NOVEL AROMATIC RING DERIVATIVE CONTAINING AMIDE SUBSTITUTION AND USE THEREOF” (TIANJIN PHARMACEUTICAL BIOTECHNOLOGY CO., LTD., priority 2022, published 2026):

Columns and labels:
[1] = molecular target: Ba/F3 cell line expressing TYK2 (Homo sapiens, UniProt P29597, cells depend on it, form not given); assay: In vitro cellular inhibition assay (Ba/F3 cell proliferation, CellTiter-Glo); format: cell-based; conditions: read-out: IC50 (the source's name)
Summary of the method: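 Ba/F3 cells dependent on TYK2 were exposed to serially diluted compound, then viability was read by CellTiter-Glo luminescence. Inhibition (%) was calculated from RLU relative to max and min controls, and IC50 was obtained by curve fitting.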

[2] = molecular target: JAK2 JH1 kinase (Homo sapiens, UniProt O60674); assay: JAK2 JH1 enzyme assay in vitro (TR-FRET); format: biochemical; conditions: read-out: JAK 2 JH1 IC50
JAK2 JH1 kinase, sequence (O60674 849-1124 limits assumed): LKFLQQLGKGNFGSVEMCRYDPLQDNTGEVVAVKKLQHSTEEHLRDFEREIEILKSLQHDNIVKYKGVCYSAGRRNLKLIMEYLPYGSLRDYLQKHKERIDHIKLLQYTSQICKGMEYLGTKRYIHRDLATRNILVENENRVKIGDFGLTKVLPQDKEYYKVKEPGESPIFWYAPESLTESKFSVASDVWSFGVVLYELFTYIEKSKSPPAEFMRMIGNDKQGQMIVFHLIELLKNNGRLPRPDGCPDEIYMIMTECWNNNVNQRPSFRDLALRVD

[3] = system: mouse asthma model induced by OVA; assay: Mouse asthma model induced by OVA: airway hyperresponsiveness (Penh); format: in vivo; conditions: for Enhanced pause (Penh) value: 2 mg/mL, 50 μL endotracheally, once daily for 3 days
Description: The efficacy of the compounds according to the present invention in a mouse asthma model induced by OVA could be assessed using the following method:
Test sample: the compound of Example 3 was weighed accurately, and dissolved in DMSO to prepare a solution at a concentration of 2 mg/mL.
30 female BALB/c mice were adaptively fed. After one week, 10 mice were randomly taken out and fed as a blank control group, and 20 mice were selected to establish the asthma model. The model mice were intraperitoneally injected with 0.2 mL of sensitizing solution for sensitization respectively on 0, 7 and 14 days. The sensitization solution contained 50 μg of OVA and 2 mg of Al(OH)3. The blank control group received an equivalent volume of physiological saline.
From day 21 to day 23 after sensitization, the mice in the model group and the administration group were subjected to nebulization stimulation with 5% OVA for 30 min, and the mice in the blank control group received nebulization with physiological saline for the same duration.
30 min before daily stimulation of the mice, 50 μl of physiological saline was administered endotracheally to mice in the blank control and model groups, and 50 μl of the corresponding drug was administered endotracheally to mice in the Example 3 compound group, once daily for 3 consecutive days.
Airway hyperresponsiveness was measured in each group of mice after the last stimulation. The mice were placed in a whole-body plethysmograph. After recording the baseline values of enhanced pause (Penh), the mice were stimulated by nebulized methacholine, wherein the concentrations of the methacholine were 0, 6.25 and 12.5 mg/mL from low to high, the nebulization volume was 100 μL per dose for 60 s.
Statistical analysis was conducted using SPSS software, Measurement data were expressed as mean±standard deviation. One Way ANOVA was used for inter-group comparisons, LSD test was used for those with homogeneous variance, and Dunnett-t test was used for those with heterogeneous variance. Differences were statistically significant with P<0.05.

## [2H]C([2H])([2H])NC(=O)c1nnc(NC(=O)C2CC2)cc1Nc1cccc(C(=O)Nc2cccc(C)c2)c1OC [Example 3]
[1]
  GI50: 1 to 5 nM
[2]
  IC50: > 10000 nM
[3]; administration before stimulation, P<0.05
  Effect on enhanced pause (Penh) values compared to the model group: significantly reduce
[3]; methacholine 0 mg/mL
  Enhanced pause (Penh) value: 0.86 ± 0.31
[3]; methacholine 6.25 mg/mL
  Enhanced pause (Penh) value: 1.79 ± 0.45
[3]; methacholine 12.5 mg/mL
  Enhanced pause (Penh) value: 2.94 ± 0.66
